According to patent US11384090B2, “Spiropyrrolidine derived antiviral agents” (priority 2020, dated 2022):

Target: SARS-CoV-2 3CL-protease (Severe acute respiratory syndrome coronavirus 2 (2019-nCoV) (SARS-CoV-2), UniProt P0DTD1)
Experiment: biochemical
Conditions: read-out: FRET IC50

CC(C)(C)C[C@H](NC(=O)c1cc2c(F)cccc2[nH]1)C(=O)N1C[C@]2(C[C@H]1C#N)C(=O)Nc1ccccc12 [Compound 21] and CN(C(=O)OCc1ccccc1)[C@@H](Cc1ccccc1)C(=O)N1C[C@]2(C[C@H]1C#N)C(=O)Nc1ccccc12 [Compound 41] cannot be ordered by IC50: < 100 nM for the first, < 100 nM for the second.

Work on CC(C)C[C@@H](C(=O)N1C[C@]2(C[C@H]1C=O)C(=O)Nc1ccccc12)N(C)C(=O)OCc1ccccc1 [Compound 24] yielded an IC50 of 100 to 1000 nM.

Test system: 229E human corona virus (hCoV)
Experiment: 229E live virus assay
Format: cell-based, hCoV-229E
Conditions: Human coronavirus 229E, MRC5, 144 h, read-out: 229E EC50

CN(C(=O)c1cc2c(F)cc(F)cc2[nH]1)[C@@H](Cc1ccccc1)C(=O)N1C[C@]2(C[C@H]1C#N)C(=O)Nc1ccccc12 [Compound 81] was tested, and the EC50 was < 100 nM.

Same assay, conditions: MRC-5 cells, MOI 0.05, 6 days at 34° C., ATPlite readout, run in duplicate; read-out: 229E EC50

Compared with CC(C)C[C@H](NC(=O)OCc1ccccc1)C(=O)N1C[C@]2(C[C@H]1C#N)C(=O)Nc1ccccc12 [Compound 1], CC(C)C[C@@H](C(=O)N1C[C@]2(C[C@H]1C#N)C(=O)Nc1ccccc12)N(C)C(=O)OCc1ccccc1 [Compound 39] is higher in EC50: 100 to 1000 nM for the first, > 1000 nM for the second. The first is the more potent here.

First: COc1cccc2[nH]c(C(=O)N[C@@H](CC(C)C)C(=O)N3C[C@]4(C[C@H]3C#N)C(=O)Nc3ccccc34)cc12 [Compound 11]
Second: COc1cccc2[nH]c(C(=O)N[C@H](CC(C)C)C(=O)N3C[C@]4(C[C@H]3C#N)C(=O)Nc3ccccc34)cc12 [Compound 12]
The EC50 of the first is lower: < 100 nM for the first, 100 to 1000 nM for the second. The first is the more potent here.

Compared with COc1cccc2[nH]c(C(=O)N[C@H](CC(C)(C)C)C(=O)N3C[C@]4(C[C@H]3C#N)C(=O)Nc3ccccc34)cc12 [Compound 16], COc1cccc2[nH]c(C(=O)N[C@@H](CC3CCC3)C(=O)N3C[C@]4(C[C@H]3C#N)C(=O)Nc3ccccc34)cc12 [Compound 17] is lower in EC50: 100 to 1000 nM for the first, < 100 nM for the second. The second is the more potent here.

First: COc1cccc2[nH]c(C(=O)N[C@@H](CC(C)C)C(=O)N3C[C@]4(C[C@H]3C=O)C(=O)Nc3ccccc34)cc12 [Compound 23]
Second: COc1cccc2[nH]c(C(=O)N[C@@H](CC(C)C)C(=O)N3C[C@]4(C[C@H]3C(=O)C(=O)NC3CC3)C(=O)Nc3ccccc34)cc12 [Compound 31]
The EC50 of the first is lower: < 100 nM for the first, 100 to 1000 nM for the second. The first is the more potent here.

CN(C(=O)OCc1ccccc1)[C@@H](CC1CCC1)C(=O)N1C[C@]2(C[C@H]1C#N)C(=O)Nc1ccccc12 [Compound 89] and C=CCN(C(=O)OCc1ccccc1)[C@@H](CC(C)C)C(=O)N1C[C@]2(C[C@H]1C#N)C(=O)Nc1ccccc12 [Compound 96] fall in the same range of EC50: 100 to 1000 nM for the first, 100 to 1000 nM for the second.

CN(C(=O)c1cc2c(F)cc(F)cc2[nH]1)[C@@H](CC1CCC1)C(=O)N1C[C@]2(C[C@H]1C#N)C(=O)Nc1ccccc12 [Compound 91] and CC(C)CC[C@@H](C(=O)N1C[C@]2(C[C@H]1C#N)C(=O)Nc1ccccc12)N(C)C(=O)c1cc2c(F)cc(F)cc2[nH]1 [Compound 104] cannot be ordered by EC50: < 100 nM for the first, < 100 nM for the second.

Compared with CCCN(C(=O)OCc1ccccc1)[C@@H](CC(C)C)C(=O)N1C[C@]2(C[C@H]1C#N)C(=O)Nc1ccccc12 [Compound 97], CCCN(C(=O)c1cc2c(F)cccc2[nH]1)[C@@H](CC(C)C)C(=O)N1C[C@]2(C[C@H]1C#N)C(=O)Nc1ccccc12 [Compound 98] is lower in EC50: > 1000 nM for the first, 100 to 1000 nM for the second. The second is the more potent here.
